Results from US20240148682A1, “METHOD FOR REGULATING DOWNSTREAM SIGNALING PATHWAY MEDIATED BY ACTIVATION OF TRIMETHYLAMINE-N-OXIDE” (China Medical University, priority 2022, published 2024).

Columns and labels:
miR-221 = test: Quantitative PCR of miR-221 expression in hEPCs; type: cell-based, human; conditions: for inhibiting the expression of miR-221: trimethylamine-N-oxide 300 μM, 125 μM DHA (embodiment 3) or EPA (embodiment 6), 24 hours, compared with comparison group 1
Description: To analyze the effects of the omega-3 polyunsaturated fatty in inhibiting the inflammatory responses induced by the activation of the trimethylamine-N-oxide, human endothelial progenitor cells are cultured in the MCDB-131 medium supplemented with the 10% fetal bovine serum and the EGM™-2 growth kit and are administered separately with reagent formulations of the control group 1, the comparison group 1, and the embodiments 1 to 6 shown in Table 1. After the culture time of 24 hours has elapsed, the expressions of cytokines related to the inflammatory responses in the human endothelial progenitor cells are analyzed by enzyme-linked immunosorbent assay (ELISA) and quantitative PCR (qPCR) so as to evaluate the effects of the omega-3 polyunsaturated fatty acids in inhibiting the inflammatory responses mediated by the activation of the trimethylamine-N-oxide. Each experiment is repeated 3 times.
In detail, according to the previous studies, miRNA-221 (“miR-221” hereafter) plays an essential role in the physiological metabolism of the human endothelial progenitor cells. […] Therefore, the present disclosure uses the quantitative PCR and the enzyme-linked immunosorbent assay to analyze the expressions of miR-221 and IL-6 in the human endothelial progenitor cells of the control group 1, the comparison group 1, and the embodiments 1 to 6 after cell culture for 24 hours so as to evaluate the effects of the omega-3 polyunsaturated fatty acids in inhibiting the inflammatory responses induced by the activation of the trimethylamine-N-oxide.
Furthermore, the operation details of the quantitative PCR and the enzyme-linked immunosorbent assay are well-known in the art and can be adjusted according to the experimental requirements, so the detailed steps thereof will not be described herein again.

[1] = test system: Akt/eNOS signaling pathway and MAPK/ERK signaling pathway; test: Western blot of factors of the Akt/eNOS and MAPK/ERK signaling pathways in SCF-treated hEPCs; type: cell-based, human; conditions: SCF 20 ng/mL, trimethylamine-N-oxide 300 μM (comparison group 3) vs SCF alone (comparison group 2), 8 hours
Description: (§1) To analyze the effects of the omega-3 polyunsaturated fatty acids in alleviating the impairment of neovascularization induced by the activation of the trimethylamine-N-oxide, human endothelial progenitor cells are cultured in the MCDB-131 medium containing the EGM™-2 growth kit and the 10% fetal bovine serum in a Matrigel-coated 96-well plate. Then, the human endothelial progenitor cells are administered separately with reagent formulations of the control group 2, the comparison groups 2 to 3, and the embodiments 7 to 9 shown in Table 2, and incubated in an incubator at 37° C. for 8 hours.
(§2) After the culture time of 8 hours has elapsed, the human endothelial progenitor cells are fixed in glutaraldehyde/paraformaldehyde solution and treated with Calcein-AM solution so as to detect the fluorescent signals of different groups. The proteins of the human endothelial progenitor cells are extracted and analyzed by the Western blot analysis to confirm the expressions of factors related to the Akt/eNOS signaling pathway, the MAPK/ERK signaling pathway and the expression of gamma-glutamylcysteine synthetase (“γ-GCS” hereafter), wherein the γ-GCS participates in the synthesis of GSH. The GSH/GSSG ratios in the human endothelial progenitor cells are analyzed by using the liquid chromatography, the electrospray ionization, and the mass spectrometry. Each experiment is repeated 3 times. […]

[2] = test system: human endothelial progenitor cells; test: Neovasculogenesis index of hEPCs on Matrigel (Calcein-AM); type: cell-based; conditions: SCF 20 ng/mL, trimethylamine-N-oxide 300 μM (comparison group 3) vs SCF alone (comparison group 2), p<0.05
Description: as §1
After the culture time of 8 hours has elapsed, the human endothelial progenitor cells are fixed in glutaraldehyde/paraformaldehyde solution and treated with Calcein-AM solution so as to detect the fluorescent signals of different groups. The proteins of the human endothelial progenitor cells are extracted and analyzed by the Western blot analysis to confirm the expressions of factors related to the Akt/eNOS signaling pathway, the MAPK/ERK signaling pathway and the expression of gamma-glutamylcysteine synthetase (“γ-GCS” hereafter), wherein the γ-GCS participates in the synthesis of GSH. The GSH/GSSG ratios in the human endothelial progenitor cells are analyzed by using the liquid chromatography, the electrospray ionization, and the mass spectrometry. Each experiment is repeated 3 times.

[3] = test system: human endothelial progenitor cells; test: GSH/GSSG ratio in hEPCs by liquid chromatography, electrospray ionization, mass spectrometry; type: cell-based; conditions: SCF 20 ng/mL, trimethylamine-N-oxide 300 μM (comparison group 3) vs SCF alone (comparison group 2), p<0.05
Description: as §1, §2

| Compound | inhibiting the expression of miR-221 (miR-221) | expression of miR-221 (miR-221; trimethylamine-N-oxide 300 μM alone (comparison group 1) vs control group 1, 24 hours) | expressions of p-Akt, p-eNOS, and p-ERK1/2 [1] | neovasculogenesis index [2] | GSH/GSSG ratio [3] |
| --- | --- | --- | --- | --- | --- |
| CC/C=C\C/C=C\C/C=C\C/C=C\C/C=C\C/C=C\CCC(=O)O [DHA, docosahexaenoic acid] | 85% | – | – | – | – |
| CC/C=C\C/C=C\C/C=C\C/C=C\C/C=C\CCCC(=O)O [EPA, eicosapentaenoic acid] | 75% | – | – | – | – |
| C[N+](C)(C)[O-] [trimethylamine-N-oxide, Trimethylamine-N-oxide] | – | significantly higher | lower | significantly lower | significantly lower |
